Like-named read-outs stand apart in the source and are kept apart here. Blank lines part the entries; values can stand above or below the molecule they belong to. No end group written: not given here.
Biological target: T1, human TAS1R2-WT/TAS1R3-P780A (Homo sapiens, UniProt Q7RTX0+Q8TE23, P780A)
T1 construct: expressed in transfected cells; host or cells: HEK293T stably expressing Gα16gust44
T1 sequence (Q8TE23 20-839): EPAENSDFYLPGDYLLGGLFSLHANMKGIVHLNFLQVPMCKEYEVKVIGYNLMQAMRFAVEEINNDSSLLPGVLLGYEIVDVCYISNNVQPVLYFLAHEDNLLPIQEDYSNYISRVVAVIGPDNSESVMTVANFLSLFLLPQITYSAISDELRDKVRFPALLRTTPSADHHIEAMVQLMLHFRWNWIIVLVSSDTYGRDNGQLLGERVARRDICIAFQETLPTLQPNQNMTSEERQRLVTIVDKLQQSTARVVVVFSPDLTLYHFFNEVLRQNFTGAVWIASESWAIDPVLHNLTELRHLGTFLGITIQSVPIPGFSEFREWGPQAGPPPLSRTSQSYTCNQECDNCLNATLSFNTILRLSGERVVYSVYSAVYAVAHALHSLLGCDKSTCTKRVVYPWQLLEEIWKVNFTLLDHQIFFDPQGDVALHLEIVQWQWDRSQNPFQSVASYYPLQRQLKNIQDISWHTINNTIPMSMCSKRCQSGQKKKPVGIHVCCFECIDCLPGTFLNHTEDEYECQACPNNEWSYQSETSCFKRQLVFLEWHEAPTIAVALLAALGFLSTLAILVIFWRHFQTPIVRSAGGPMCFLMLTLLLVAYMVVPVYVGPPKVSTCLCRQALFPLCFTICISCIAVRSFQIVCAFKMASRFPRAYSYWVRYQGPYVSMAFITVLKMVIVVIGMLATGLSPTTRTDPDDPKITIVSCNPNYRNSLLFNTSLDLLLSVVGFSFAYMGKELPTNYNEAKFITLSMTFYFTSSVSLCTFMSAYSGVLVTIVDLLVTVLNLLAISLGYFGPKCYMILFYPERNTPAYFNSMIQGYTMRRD
T1 sequence (Q7RTX0 21-852 P780A): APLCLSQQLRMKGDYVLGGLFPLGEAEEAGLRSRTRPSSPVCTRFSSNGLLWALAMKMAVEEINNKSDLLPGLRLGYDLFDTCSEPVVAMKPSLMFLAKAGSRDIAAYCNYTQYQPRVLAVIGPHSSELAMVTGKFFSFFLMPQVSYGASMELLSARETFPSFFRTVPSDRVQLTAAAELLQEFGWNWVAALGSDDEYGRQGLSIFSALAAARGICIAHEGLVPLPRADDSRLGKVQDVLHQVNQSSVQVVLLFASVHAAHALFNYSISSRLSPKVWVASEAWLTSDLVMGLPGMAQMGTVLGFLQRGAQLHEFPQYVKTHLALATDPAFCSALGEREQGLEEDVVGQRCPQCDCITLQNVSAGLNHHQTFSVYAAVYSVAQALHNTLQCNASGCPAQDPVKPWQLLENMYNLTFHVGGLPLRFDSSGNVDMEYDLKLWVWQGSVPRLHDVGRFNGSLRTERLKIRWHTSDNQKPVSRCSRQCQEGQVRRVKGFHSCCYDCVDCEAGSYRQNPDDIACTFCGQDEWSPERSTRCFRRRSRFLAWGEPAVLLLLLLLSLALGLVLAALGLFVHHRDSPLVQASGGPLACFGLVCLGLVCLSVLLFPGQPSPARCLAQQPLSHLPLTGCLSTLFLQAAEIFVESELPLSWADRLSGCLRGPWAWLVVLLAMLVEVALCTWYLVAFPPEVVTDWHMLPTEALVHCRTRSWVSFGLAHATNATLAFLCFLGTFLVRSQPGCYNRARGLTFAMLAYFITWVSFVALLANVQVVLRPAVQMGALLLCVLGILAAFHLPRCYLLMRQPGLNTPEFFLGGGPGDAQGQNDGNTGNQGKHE
Test: Calcium mobilisation assay, TAS1R2-WT with TAS1R3 variant P780A
Format: cell-based
Settings: for Max ΔF/F0: maximal signal amplitude
From the text: The coding sequences for TAS1R2 and TAS1R3 were commercially synthesised, and the human codon was optimised for expression in human cells. The coding sequences of human TAS1R2 and TAS1R3 were subcloned and inserted into the mammalian expression vectors pcDNA6/myc-HisA and pcDNA4/myc-HisA (Invitrogen; Thermo Fisher Scientific; Illkirch, France) between the EcoRI and NotI restriction sites, generating the plasmids pcDNA6-TAS1R2 and pcDNA4-TAS1R3, respectively. To increase protein expression in mammalian cells, an upstream start codon was used, which was a sequence called MAX, corresponding to the QBI SP163 element also described in pcDNA4-HisMax (Invitrogen; Thermo Fisher Scientific; Illkirch, France). To measure the expression level of the receptor by immunohistochemistry, we used the FLAG sequence ([…]) in the C-terminal position, which encodes the FLAG tag epitope. SNP variants of TAS1R2 and TAS1R3 were constructed based on […], respectively, using site-directed mutagenesis (Genewiz; Leipzig, Germany).
The HEK293T cells were kindly provided by Jay P. Slack (Givaudan Flavors Corporation; Cincinnati, OH, USA). HEK293T cells stably transfected with Gα16gust44 [43, 67] were seeded in poly-D-lysine-coated clear-bottom black 96-well plates (0.35 × 10^5 cells/well) in high-glucose DMEM supplemented with 2 mM GlutaMAX, 10% dialysed foetal bovine serum with penicillin/streptomycin and G418 (400 μg/mL) at 37 °C and 6.3% CO2 in a humidified atmosphere as previously reported. […] As a negative control, HEK293T cells were mock-transfected with the empty expression vector. After a further 24 h of incubation, the HEK293T cells were washed with C1 buffer (130 mM NaCl, 5 mM KCl, 10 mM HEPES pH 7.4 and 2 mM CaCl2). The 96-well plates containing the cells were then stimulated with sweet-tasting compounds. […] Different concentration ranges were tested depending on the sweet compound injected. The Ca^2+ changes were expressed as fractional changes in fluorescent light intensity: ΔF/F = (F − F0)/F0, where F was the fluorescent light intensity at each point, and F0 was the value of emitted fluorescent light prior to stimulus application. To calculate dose–response relationships, the changes in fluorescence upon stimulus application were averaged, mock-subtracted and baseline-corrected. The dose–response data obtained were adjusted using a 4-parameter logistic equation. The half-maximal effective concentrations (EC50 values) and maximal signal amplitudes were calculated using SigmaPlot software (version 15.0) (Systat Software; San Jose, CA, USA).
For in vitro calcium mobilisation assay performed on hTAS1R2-SNPs, hTAS1R3-SNPs and mTAS1R3-I60T, 6 to 7 concentrations were tested for each sweet compound, plus buffer alone. All concentration–receptor combinations were measured in duplicate, and each experiment was repeated at least 4 times (8 wells/concentration). Results were expressed for each concentration as ΔF/F mean ± SEM and represented as dose–response curves.

R1 = Variant EC50/WT EC50: 0.9
Max ΔF/F0: 1.50 ± 0.01
EC50 (read-out: EC50): 46.4 ± 12.9 µM
Molecule: COc1ccc(CCC(=O)c2c(O)cc(O[C@@H]3O[C@H](CO)[C@@H](O)[C@H](O)[C@H]3O[C@@H]3O[C@@H](C)[C@H](O)[C@@H](O)[C@H]3O)cc2O)cc1O [NHDC, neohesperidin dihydrochalcone]

R1 = Variant EC50/WT EC50: 0.8
Max ΔF/F0: 0.63 ± 0.02
EC50 (read-out: EC50): 1.03 ± 0.08 µM
Molecule: COC(=O)[C@H](Cc1ccccc1)NC(=O)[C@H](CC(=O)O)NCCC(C)(C)C [Neotame]

R1 = Variant EC50/WT EC50: 0.8
Max ΔF/F0: 0.86 ± 0.06
Molecule: thaumatin

Second part, the molecule before the results:

Molecule: CC1=CC(=O)NS(=O)(=O)O1 [Acesulfame K, acesulfame K]
R1 = Variant EC50/WT EC50: 0.7
Max ΔF/F0: 0.30 ± 0.01
EC50 (read-out: EC50): 421 ± 31 µM

Molecule: O=S(=O)(O)NC1CCCCC1 [Cyclamate, cyclamate]
EC50 (read-out: EC50): 1170 ± 62 µM

Molecule: C[C@H](CC[C@@H](O[C@@H]1O[C@H](CO[C@@H]2O[C@H](CO)[C@@H](O)[C@H](O)[C@H]2O)[C@@H](O)[C@H](O)[C@H]1O[C@@H]1O[C@H](CO)[C@@H](O)[C@H](O)[C@H]1O)C(C)(C)O)[C@H]1CC[C@@]2(C)[C@@H]3CC=C4[C@@H](CC[C@H](O[C@@H]5O[C@H](CO[C@@H]6O[C@H](CO)[C@@H](O)[C@H](O)[C@H]6O)[C@@H](O)[C@H](O)[C@H]5O)C4(C)C)[C@]3(C)[C@H](O)C[C@]12C [Mogroside V, mogroside V]
R1 = Variant EC50/WT EC50: 0.7
Max ΔF/F0: 1.13 ± 0.04
EC50 (read-out: EC50): 22.5 ± 2.2 µM

Molecule: C=C(C)[C@@H]1CC=C(/C=N/O)CC1 [Perillartine, perillartine]
R1 = Variant EC50/WT EC50: 0.9
Max ΔF/F0: 1.44 ± 0.20
EC50 (read-out: EC50): 12.7 ± 5 µM

Molecule: C=C1C[C@@]23CC[C@H]4[C@@](C)(CCC[C@@]4(C)C(=O)O[C@@H]4O[C@H](CO)[C@@H](O)[C@H](O[C@@H]5O[C@H](CO)[C@@H](O)[C@H](O)[C@H]5O)[C@H]4O[C@@H]4O[C@H](CO)[C@@H](O)[C@H](O)[C@H]4O)[C@@H]2CC[C@]1(O[C@@H]1O[C@H](CO)[C@@H](O)[C@H](O[C@@H]2O[C@H](CO)[C@@H](O)[C@H](O)[C@H]2O)[C@H]1O[C@@H]1O[C@H](CO)[C@@H](O)[C@H](O)[C@H]1O)C3 [Rebaudioside M, rebaudioside M]
R1 = Variant EC50/WT EC50: 0.6
Max ΔF/F0: 1.21 ± 0.05
EC50 (read-out: EC50): 23 ± 2.6 µM

Molecule: OC[C@H]1O[C@H](O[C@]2(CCl)O[C@H](CCl)[C@@H](O)[C@@H]2O)[C@H](O)[C@@H](O)[C@H]1Cl [Sucralose]
R1 = Variant EC50/WT EC50: 1.4
Max ΔF/F0: 0.76 ± 0.03
EC50 (read-out: EC50): 149 ± 12 µM

Molecule: brazzein (QDKCKKVYENYPVSKCQLANQCNYDCKLDKHARSGECFYDEKRNLQCICDYCEY; ends and bridges not checked; cysteine pairing not given here; UniProt P56552 1-54, looked up) [sweet-tasting protein obtained by recombinant production using the yeast Pichia pastoris]
R1 = Variant EC50/WT EC50: 0.7
EC50 (brazzein): 80.7 ± 14.8 mg/L
Max ΔF/F0: 1.06 ± 0.06

B1: thaumatin (protein)
chain: ATFEIVNRCSYTVWAAASKGDAALDAGGRQLNSGESWTINVEPGTKGGKIWARTDCYFDDSGSGICKTGDCGGLLRCKRFGRPPTTLAEFSLNQYGKDYIDISNIKGFNVPMDFSPTTRGCRGVRCAADIVGQCPAKLKAPGGGCNDACTVFQTSEYCCTTGKCGPTEYSRFFKRLCPDAFSYVLDKPTTVTCPGSSNYRVTFCPTA
modifications: Eight disulfides
notes: sweet-tasting plant protein, E957
EC50 (read-out: EC50): 7.8 ± 1.3 µM

Source: paper PMC11945486, “TAS1R2/TAS1R3 Single-Nucleotide Polymorphisms Affect Sweet Taste Receptor Activation by Sweeteners: The SWEET Project” (Nutrients, 2025)
